The results in this text go back to patent publication US8906952B2, “Indole derivative or pharmaceutically acceptable salt thereof, preparation method thereof, and pharmaceutical composition for preventing or treating metabolic diseases containing same as active ingredient” (Korea Research Institute of Bioscience and Biotechnology, priority 2011, dated 2014).

For one data set, the system named is C57BL/6J mice. Briefly: Oral lipid tolerance test (OLTT), corn oil load. As to conditions: for increase of triglyceride concentration: 30 mg/kg; for effect on blood triglyceride concentration (in words): administered to mice. It counts as in vivo. The procedure: For experiment, 8-week-old male C57BL/6J mice were purchased from Biolink, adapted to environment in bio clean room (Temp. 22±3° C., Humidity 50±10%, Lighting 12 hr interval) for 1 week, and one day before the experiment, fasted for 16 hr. The mice were allowed to freely eat radiation-sterilized solid rodent feed (Harlan, Ind., USA), except for the 16 hr fasting period before the administration of test sample, and were also allowed to freely have a sufficient amount of drinking water which was sterilized in autoclave throughout the test period.
Seven C57BL/6J mice were allocated for solvent control group (V.C., Vehicle Control), and another seven for experimental group (sample group), after which sample was administered as follows.
The normal control group was administered with administration medium (0.5% CMC; carboxy methyl cellulose) only, while the experimental group was orally administered with the compounds of Examples 27 and 49 by 10, 30 mg/kg concentrations, respectively. Before administering the samples to all the animals of the experimental group, the animals were fasted for 16 hr, after which the corresponding sample was orally administered one time, using sonde for oral administration. After 60 min, 6 ml/kg liquid measure of corn oil was orally administered. Blood samples were taken immediately before administration of the corn oil (at 0 hr), and after the corn coil administration, the blood samples were taken directly using heparin-treated capillary tube from retro-orbital sinus at predetermined time (at 2 hr and at 4 hr). The blood samples were centrifuged at 3,000 rpm for 10 min to separate plasma, and the concentration of triglyceride was directly analyzed with automated hematology chemistry analyzer (Hitachi 7150, Japan).

Another data set relates to HuTu80 cells. Briefly: DGAT activity inhibitory effect in HuTu80 cells (triglyceride production from [14C]oleate). Format: cell-based, human. The settings on record: for activity at 10 µM / inhibition at 10 µM / activity at 0.3 µM / activity at 1 µM / activity at 3 µM: Homo sapiens, HuTu80; for activity at 10 µM / activity at 0.3 µM / activity at 1 µM / activity at 3 µM: read-out: Triglyceride Production Rate (% of control)/HuTu80cells; for inhibition at 10 µM / inhibition of biosynthesis of triglycerides (in words): Hutu 80 cells; for inhibition at 10 µM: read-out: inhibitory activity on intracellular biosynthesis of triglycerides. On the procedure:
HuTu80 cells were seeded in 24-well culture plate by 2×10^5 cells/well. After 24 hr, the medium was exchanged with FBS-free DMEM and concurrently treated with sample and substrate. For the substrate, 0.5 μCi [^14C]oleate was respectively added and allowed to react for 2 hr. After the reaction, the substrate that was either not absorbed into cells or not used for the reaction were washed with PBS two times, and total fat containing triglyceride was extracted by adding 1 ml extraction solvent (n-hexane/2-propanol=3/2, v/v). The extract was concentrated with nitrogen gas. The total fat after elimination of extraction solvent was dissolved in organic solvent (chloroform/methanol=2/1, v/v), spotted on thin layer chromatography (TLC: silica gel 60F254, 0.5 mm, Merck), and developed on developing solvent (n-hexane/diethyl ether/acetic acid=80/20/1, v/v/v). After isolating triglyceride (R∫ value: 0.4) from TLC, exposing to the film with photosensitivity to energy of radioactive elements (imaging plate's Fujifilm, BAS-MS 2040) for 3 hr, and the radioactive dose of triglyceride was measured by conducting image analysis (FLA 7000).
The remaining cells after the extraction were dissolved in 0.3 ml 0.1N NaOH to measure the protein concentration of the cells used for the reaction. The protein quantification was performed with Lowry method-based, protein quantification kit (Bio-Rad). After seeding protein on 96-well, round bottom culture plate, 25 μl of solution containing 1 ml protein analysis reagent (bio-rad, alkaline copper tartrate solution) and 20 μl protein reagent S (bio-rad, surfactant solution) was seeded per well, to induce reaction between copper ion and protein. After reaction with copper ion, 200 μl reagent B (bio-rad, folin reagent) was seeded per well to allow reduction reaction of the folin reagent to occur. For the amount of protein, the light absorptivity at 750 nm was measured based on the blue coloring of the folin reagent as the reduction occurred, and the concentrations of the protein corresponding to respective light absorptivities were quantified by obtaining standard curves with the standard material as bovine serum albumin (BSA). Using the experiment value, which is obtained by dividing the measured radiation dose of the triglyceride by the protein concentration, the above process was repeated three or more times, and the mean value with ±standard error was obtained, as tabulated below.

Another data set concerns ICR mice. The experiment in a line: Acute toxicity assay. Format: in vivo. The settings on record: oral 100, 250 mg/kg; observation over two weeks. The procedure: In order to investigate acute toxicity of the indole derivatives according to the present invention, mice (20±5 g, Central Lab. Animal Inc.) and rats (235±10 g, Central Lab. Animal Inc.) were used for the acute toxicity assay of compound 1.
A total of […] of 10 ICR mice were orally administered with compound 1 according to the present invention by the dose of 100, 250 mg/kg, respectively.

Where [1] appears, read: 10 mg/kg oral, 0 hr (immediately before corn oil).
[2] abbreviates: 10 mg/kg oral, 2 hr after corn oil.
[3] abbreviates: 10 mg/kg oral, 4 hr after corn oil.
Where [4] appears, read: 30 mg/kg oral, 0 hr (immediately before corn oil).
Where [5] appears, read: 30 mg/kg oral, 2 hr after corn oil.
Where [6] appears, read: 30 mg/kg oral, 4 hr after corn oil.
Where [7] appears, read: after 2 hr of corn oil administration.
Setting [8] is: after 4 hr of corn oil administration.

Consider `CC(C)=CCn1cc(/C=C/C(=O)N(NC(=O)c2ccccc2)C(C)C)c2ccccc21` [Example 27, (E)-N′-isopropyl-N′-(3-(1-(3-methylbut-2-enyl)-1H-indol-3-yl)acryloyl)benzohydrazide], for which the “Serum TG” value turned out to be 62.8 ± 20.6 mg/dL in the data set with C57BL/6J mice (setting [1]); 171.0 ± 61.7 mg/dL in the data set with C57BL/6J mice (setting [2]); 83.0 ± 22.8 mg/dL in the data set on C57BL/6J mice (setting [3]); 45.4 ± 7.2 mg/dL with C57BL/6J mice (setting [4]); 104.2 ± 40.3 mg/dL in the data set on C57BL/6J mice (setting [5]); 79.8 ± 37.3 mg/dL with C57BL/6J mice (setting [6]). Moreover, the “increase of triglyceride concentration” value in the data set on C57BL/6J mice (setting [7]) is listed as “approximately 1.9 fold”; in the data set with C57BL/6J mice (setting [8]) it was “approximately 1.1 fold”. Also, in the data set on C57BL/6J mice, the “effect on blood triglyceride concentration (in words)” value was “superior effect of decreasing blood triglyceride concentration”. Besides, in the data set on HuTu80 cells, the activity at 10 µM amounted to 13.1 ± 0.9%. Besides, the inhibition at 10 µM with HuTu80 cells lay within 70 to 80%.

In the case of `CC(C)=CCn1cc(/C=C/C(=O)N(NC(=O)c2ccc(F)cc2)C(C)C)c2ccccc21` [Example 49, (E)-4-fluoro-N′-isopropyl-N′-(3-(1-(3-methylbut-2-enyl)-1H-indol-3-yl)acryloyl)benzohydrazide], the “Serum TG” value in the data set on C57BL/6J mice (setting [1]) was 78.8 ± 23.2 mg/dL; in the data set on C57BL/6J mice (setting [2]), 90.8 ± 28.2 mg/dL; in the data set with C57BL/6J mice (setting [3]), 43.2 ± 12.9 mg/dL; in the data set on C57BL/6J mice (setting [4]) it was 45.8 ± 6.1 mg/dL; in the data set on C57BL/6J mice (setting [5]), 86.4 ± 11.1 mg/dL; in the data set on C57BL/6J mice (setting [6]), 50.0 ± 11.9 mg/dL. Also, the “increase of triglyceride concentration” value in the data set on C57BL/6J mice (setting [7]) is reported as around 2.3 fold; in the data set with C57BL/6J mice (setting [8]), around 1.8 fold. Moreover, the “effect on blood triglyceride concentration (in words)” value in the data set with C57BL/6J mice is “superior effect of decreasing blood triglyceride concentration”. The activity at 0.3 µM in the data set with HuTu80 cells is 66.9 ± 3%. The activity at 1 µM in the data set on HuTu80 cells is 33.4 ± 4.4%. Moreover, in the data set on HuTu80 cells, the activity at 3 µM amounted to 21.4 ± 0.3%. Further, in the data set on HuTu80 cells, the activity at 10 µM was determined as 13.1 ± 0.9%. In the data set with HuTu80 cells, the inhibition at 10 µM was 70 to 80%. Besides, the “inhibition of biosynthesis of triglycerides (in words)” value (from here on “inhibition … (in words)”) with HuTu80 cells is on record as “inhibited biosynthesis of triglycerides in a concentration-dependent manner”.

As to `CC(C)N(NC(=O)c1ccc(F)cc1)C(=O)/C=C/c1cn(C(=O)OC(C)(C)C)c2ccccc12` [Example 44, (E)-tert-butyl 3-(3-(2-(4-fluorobenzoyl)-1-isopropylhydrazinyl)-3-oxoprop-1-enyl)-1H-indole-1-carboxylate], in the data set on HuTu80 cells, the activity at 0.3 µM was 63.9 ± 4.3%, the activity at 1 µM was 43.7 ± 0.3%, the activity at 3 µM came to 29 ± 0.9% and the activity at 10 µM came out at 20 ± 1.2%. Besides, in the data set on HuTu80 cells, the inhibition at 10 µM was 70 to 80% and the “inhibition … (in words)” value is “inhibited biosynthesis of triglycerides in a concentration-dependent manner”.

As to `CC(C)CCn1cc(/C=C/C(=O)N(NC(=O)c2ccc(F)cc2)C(C)C)c2ccccc21` [Example 46, (E)-4-fluoro-N′-(3-(1-isopentyl-1H-indol-3-yl)acryloyl)-N′-isopropylbenzohydrazide], in the data set with HuTu80 cells, the activity at 0.3 µM amounted to 30 ± 0.3%, the activity at 1 µM turned out to be 30 ± 1.3%, the activity at 3 µM amounted to 20 ± 1.2% and the activity at 10 µM came to 20 ± 1.8%. For the same molecule, in the data set on HuTu80 cells, the inhibition at 10 µM fell in the range of 70 to 80% and the “inhibition … (in words)” value was “inhibited biosynthesis of triglycerides in a concentration-dependent manner”.

On to `CC(C)N(NC(=O)c1ccccc1)C(=O)/C=C/c1cn(C(=O)OC(C)(C)C)c2ccccc12` [Example 1, (E)-tert-butyl 3-(3-(2-benzoyl-1-isopropylhydrazinyl)-3-oxoprop-1-enyl)-1H-indole-1-carboxylate], for which, in the data set on ICR mice, the death entry was “no death” and the “difference on the outside” value was “nor did the groups show any specific difference on the outside”.

Turning to `Cc1ccc(C(=O)NN(C(=O)/C=C/c2cn(C(=O)OC(C)(C)C)c3ccccc23)C(C)C)cc1` [Example 48, (E)-tert-butyl 3-(3-(1-isopropyl-2-(4-methylbenzoyl)hydrazinyl)-3-oxoprop-1-enyl)-1H-indole-1-carboxylate], the activity at 10 µM with HuTu80 cells stood at 23.9 ± 0.8%.

Turning to `Cc1cccc(C(=O)NN(C(=O)/C=C/c2cn(C(=O)OC(C)(C)C)c3ccccc23)C(C)C)c1` [Example 47, (E)-tert-butyl 3-(3-(1-isopropyl-2-(3-methylbenzoyl)hydrazinyl)-3-oxoprop-1-enyl)-1H-indole-1-carboxylate], in the data set with HuTu80 cells, the activity at 0.3 µM turned out to be 56.1 ± 0.1%, the activity at 1 µM was determined as 30.2 ± 1.2%, the activity at 3 µM is 19 ± 5% and the activity at 10 µM is 13.7 ± 1.5%. Besides, in the data set with HuTu80 cells, the inhibition at 10 µM was 70 to 80% and the “inhibition … (in words)” value is recorded as “inhibited biosynthesis of triglycerides in a concentration-dependent manner”.
